Consider 14 molecules from US20060228387A1, “Dihydronepetalactams and N-substituted derivatives thereof” (priority 2004, published 2006).

In this test the test system is Aedes aegypti mosquitoes. The test is described as follows: in vitro Gupta box landing assay (insect repellency). The note with it: 20 min; 1% (w/v) in isopropyl alcohol, 25 μL on Baudruche membrane; female Aedes aegypti; landings over 20 min vs IPA control. How it is done: The products of Examples 1-15 were evaluated for insect repellency against Aedes aegypti mosqutioes in the in vitro Gupta box landing assay. In this method a chamber contained 5 wells, each covered by a Baudruche (animal intestine) membrane. Each well was filled with bovine blood containing sodium citrate (to prevent clotting) and ATP (72 mg ATP disodium salt per 26 ml of blood), and heated to 37° C. A volume of 25 μL of isopropyl alcohol (IPA) containing one test specimen or control was applied to each membrane. The concentrations of the dihydronepetalactam products were 1% (w/v) in IPA. The negative control was neat IPA and the positive control was a 1% (w/v) solution of DEET. After 5 min, approximately 250 4-day-old female Aedes aegypti mosquitoes were introduced into the chamber. The number of mosquitoes probing the membranes for each treatment was recorded at 2 min intervals over 20 min. The results obtained in this manner with respect to the compounds of […] are depicted in FIGS. 1-10 (labeled as Examples 16˜25), wherein each datum represents the mean of five replicate experiments. […] The % mean repellencies at 1% (w/v) are depicted in Table 2 for the compounds of Examples 1˜15, wherein R refers to the substituent on dihydronepetalactam.
A word on the pest or weed control: it is the degree to which the test organism was suppressed or injured, in per cent. Read a low pest or weed control as a weak effect. Molecule `C[C@@H]1CN(C)C(=O)[C@H]2[C@@H]1CC[C@@H]2C` [IVa, (4S,4aR,7S,7aR)-2,4,7-trimethyloctahydro-1H-cyclopenta[c]pyridin-1-one] gave a pest or weed control at 10000 µg/mL of 39.6%.
The molecule `CCN1C[C@@H](C)[C@H]2CC[C@H](C)[C@H]2C1=O` [IVb, (4S,4aR,7S,7aR)-2-ethyl-4,7-dimethyloctahydro-1H-cyclopenta[c]pyridin-1-one] displayed a pest or weed control at 10000 µg/mL of 96.8%.
Turning to `CCCN1C[C@@H](C)[C@H]2CC[C@H](C)[C@H]2C1=O` [IVc, (4S,4aR,7S,7aR)-2-n-propyl-4,7-dimethyloctahydro-1H-cyclopenta[c]pyridin-1-one], the pest or weed control at 10000 µg/mL came out at 87.9%.
In turn, `CCCCN1C[C@@H](C)[C@H]2CC[C@H](C)[C@H]2C1=O` [IVd, (4S,4aR,7S,7aR)-2-n-butyl-4,7-dimethyloctahydro-1H-cyclopenta[c]pyridin-1-one] had a pest or weed control at 10000 µg/mL of 86.3%.
Take `CCCCCN1C[C@@H](C)[C@H]2CC[C@H](C)[C@H]2C1=O` [IVe, (4S,4aR,7S,7aR)-2-n-pentyl-4,7-dimethyloctahydro-1H-cyclopenta[c]pyridin-1-one]: the pest or weed control at 10000 µg/mL was 100%.
In turn, `CCCCCCN1C[C@@H](C)[C@H]2CC[C@H](C)[C@H]2C1=O` [IVf, (4S,4aR,7S,7aR)-2-n-hexyl-4,7-dimethyloctahydro-1H-cyclopenta[c]pyridin-1-one] showed a pest or weed control at 10000 µg/mL of 99.8%.
In turn, `CCCCCCCCN1C[C@@H](C)[C@H]2CC[C@H](C)[C@H]2C1=O` [IVg, (4S,4aR,7S,7aR)-2-n-octyl-4,7-dimethyloctahydro-1H-cyclopenta[c]pyridin-1-one] came in with a pest or weed control at 10000 µg/mL of 98.3%.
Next, `CC(C)N1C[C@@H](C)[C@H]2CC[C@H](C)[C@H]2C1=O` [IVh, (4S,4aR,7S,7aR)-2-n-isopropyl-4,7-dimethyloctahydro-1H-cyclopenta[c]pyridin-1-one]: 69.4%.
On to `C=CCN1C[C@@H](C)[C@H]2CC[C@H](C)[C@H]2C1=O` [IVi, (4S,4aR,7S,7aR)-2-n-allyl-4,7-dimethyloctahydro-1H-cyclopenta[c]pyridin-1-one], for which the pest or weed control at 10000 µg/mL was 90.6%.
`C#CCN1C[C@@H](C)[C@H]2CC[C@H](C)[C@H]2C1=O` [IVj, (4S,4aR,7S,7aR)-2-n-propargyl-4,7-dimethyloctahydro-1H-cyclopenta[c]pyridin-1-one]: the pest or weed control at 10000 µg/mL turned out to be 88.1%.
`C[C@@H]1CNC(=O)[C@H]2[C@@H]1CC[C@@H]2C` [V, (4S,4aR,7S,7aR)-4,7-dimethyloctahydro-1H-cyclopenta[c]pyridin-1-one] gave a pest or weed control at 10000 µg/mL of 69.6%.
Consider `C[C@@H]1CN(c2ccccc2)C(=O)[C@H]2[C@@H]1CC[C@@H]2C` [VIIa, (4S,4aR,7S,7aR)-4,7-dimethyl-2-phenyloctahydro-1H-cyclopenta[c]pyridin-1-one], for which the pest or weed control at 10000 µg/mL turned out to be 59.5%.
For `C[C@@H]1CN(c2ccc(Cl)cc2)C(=O)[C@H]2[C@@H]1CC[C@@H]2C` [VIIb, (4S,4aR,7S,7aR)-2-(4-chlorophenyl)-4,7-dimethyloctahydro-1H-cyclopenta[c]pyridin-1-one], the pest or weed control at 10000 µg/mL came out at 81.5%.
Next, `C[C@@H]1CN(c2ccc(Br)cc2)C(=O)[C@H]2[C@@H]1CC[C@@H]2C` [VIIc, (4S,4aR,7S,7aR)-2-(4-bromophenyl)-4,7-dimethyloctahydro-1H-cyclopenta[c]pyridin-1-one]: 54.1%.
